Two molecules from patent US20230390296A1, “NOVEL TREATMENT AND PREVENTION OF SARCOPENIA-RELATED DISEASES” (KEIO UNIVERSITY, priority 2020, published 2023) can be followed below.

The test system of series [1] is 74-week old mice (C57B16/J). Put plainly: Grip strength test (smart grip strength meter). The series is classed as in vivo, mouse. As to conditions: 7 mg/kg and 20 mg/kg intraperitoneal twice a week for 6 weeks. The protocol:
74-week old mice (C57B16/J) were purchased from Oriental Yeast. Various concentrations (0 mg/kg (control), 7 mg/kg, and 20 mg/kg) of C-82 were administered twice a week through a 6-week intraperitoneal administration until reaching 80-week old. Muscle strength (endurance) and grip strength of mice administered with C-82 were then measured through a treadmill test and smart grip strength meter for rats and mice (Muromachi Kikai Co., Ltd.), respectively. The treadmill test was conducted under the same condition as Example 1.

The test system of series [2] is myoblast C2C12. Description: Gene analysis (RNA-seq) in C-82 treated myoblasts. The series is classed as cell-based, mouse. As to conditions: C-82 treated C2C12. The protocol: This Example investigated what gene modulation C-82 is involved with in myoblast C2C12 to identify a gene that is useful in the diagnosis or treatment of sarcopenia.
Gene analysis (RNA-seq) in C-82 treated myoblasts was performed by the same method as Example 2.

The test system of series [3] is old mice. Put plainly: Muscle mass by MRI (volume of right gastrocnemius muscle/soleus muscle), with/without treadmill exercise. The series is classed as in vivo, mouse. The protocol:
OK-1 was then intraperitoneally administered to each mouse twice a week at 20 mg/kg/day over 8 weeks (i.e., until reaching 23 week old and 88 week old, respectively). Treadmill exercise was conducted three times a week at 8 m/minute for 5 minutes→15 m/minute for 35 minutes while administering OK-1 twice a week at 20 mg/kg/day over 5 weeks (i.e., until reaching 28 week old and 93 week old, respectively). The muscle mass was then measured with the following equipment and conditions through MRI (FIG. 1B). MRI (MRminiSA1545, Japan REDOX) (magnetic flux density: 1.5 tesla (permanent magnet) (temporal resolution: 100 ns) was used to capture images of the lower limbs of the mice. The recovered data was converted into dicom data, and the volume of right gastrocnemius muscle/soleus muscle was quantified with Osirix Lite.

The test system of series [4] is ALS mouse models (e.g., SOD1G93A mice). Description: ALS mouse model. The class given is in vivo. As to conditions: administered versus non-administered group. The protocol:
ALS mouse models (e.g., SOD1G93A mice) were divided into two groups. OK was administered to one of the groups, and OK was not administered to the other group.

The subject of series [5] is Mice induced to be obese by feeding high fat feed. Put plainly: High fat feed obese mice (metabolism). The class given is in vivo, mouse. As to conditions: administered versus non-administered group. The protocol: Mice induced to be obese by feeding high fat feed were divided into two groups. OK was administered to one of the groups, and OK was not administered to the other group.

The nature of series [6]: Body weight and behavior during the dosing period. The series is classed as in vivo, mouse. As to conditions: intraperitoneal, twice a week over three months, 20 mg/kg/day; young and old mice. The protocol: OK-1 manufactured in Manufacturing Example 1 was intraperitoneally administered to young and old mice twice a week over three months. The dosage was 20 mg/kg/day.
Series [7] is described as follows: Blood (plasma) test of six markers with biochemical automatic analyzer. The class given is in vivo, mouse. The protocol:
75-week old mice (C57B16/J) were purchased from Oriental Yeast. Various concentrations (0 mg/kg (control), 0.2 mg/kg, 2 mg/kg, 20 mg/kg, and 40 mg/kg) of OK-1 were administered twice a week for 12 weeks until reaching 87-week old. Blood (plasma) was then recovered, and the concentrations of the following six markers were measured using a biochemical automatic analyzer (JCA-BM6050, JEOL). • LDH: lactate dehydrogenase can predict a liver, myocardial, or skeletal muscle disorder, etc. A decrease in LDH is expected to have a therapeutic effect on acute hepatitis, chronic hepatitis, cirrhosis, liver cancer, and other liver diseases, acute myocardial infarction, congested heart failure, and other heart diseases, polymyositis, muscular dystrophy, and other muscular diseases, pernicious anemia, leukemia, hemolytic anemia, etc. • ALT: This is a biomarker that can predict a liver tissue disorder. A decrease in ALT is expected to have a therapeutic effect on acute hepatitis, chronic hepatitis, alcoholic hepatitis, cirrhosis, liver cancer, fatty liver, acute myocardial infarction and other heart diseases, progressive muscular dystrophy and other muscular diseases, etc. • TG: Neutral fat is used for predicting diabetes, obesity, or arteriosclerotic disease. A decrease in TG is expected to have a therapeutic effect on hyperchylomicronemia, LPL deficiency, diabetes, obesity, arteriosclerosis, gout, hypothyroidism, Cushing's syndrome, nephrotic syndrome, obstructive jaundice, acute/chronic pancreatitis, etc. • HDL-C: This is used as a marker for arteriosclerosis, diabetes, cirrhosis, etc., of HDL cholesterol. A decrease in HDL-C is expected to have a therapeutic effect on primary biliary cirrhosis and hyperthyroidism. • UN: Urea nitrogen is a biomarker that can predict dysfunction of kidney or urinary system. An increase in UN is expected to have a therapeutic effect on toxic hepatitis, fulminant hepatitis, end-stage of cirrhosis, diabetes insipidus, acromegaly, etc. • UA: Uric acid is a biomarker for kidney or liver function. An increase in UA is expected to have a therapeutic effect on cirrhosis, xanthinuria, Fanconi syndrome, Wilson's syndrome, glomerulonephritis, etc.

For series [8], the system named is Diabetes mouse models (e.g., KK/TaJcl). Description: Diabetes mouse model. The series is classed as in vivo. As to conditions: administered versus non-administered group. The protocol:
Diabetes mouse models (e.g., KK/TaJcl) were divided into two groups. OK was administered to one of the groups, and OK was not administered to the other group.

Setting [9] is: 75-week old mice, 0.2, 2, 20, 40 mg/kg twice a week for 12 weeks.
The mark [10] stands for this setting: at a specific OK-1 concentration, twice a week for 12 weeks.

SMILES strings stand for the structures. “Also recorded” adds a separate entry of the source.

Take `C[C@H]1[C@H]2N(C(=O)CN(C)N2C(=O)NCc2ccccc2)[C@@H](Cc2ccc(O)cc2)C(=O)N1Cc1cccc2cccnc12` [C-82, (6S,9S)—N-benzyl-6-(4-hydroxybenzyl)-2,9-dimethyl-4,7-dioxo-8-(quinolin-8-ylmethyl)hexahydro-2H-pyrazino[2,1-c][1,2,4]triazine-1(6H)-carboxamide]: the grip strength entry in series [1] is “a significant difference was not observed in grip strength, a tendency for a concentration dependent increase was observed; also recorded: a significant difference was not observed in grip strength, a tendency of a concentration dependent increase was observed”. Also, in series [2], the “gene group associated with C-82 (upstream transcription factor analysis)” value was “Nfkb1, Srebf2, Sp1, Trp53, Xbp1, Myod1, Srebf1, Jun, Stat3, Sp3, Myf6, Nr3c1, Foxo3, Nfe212, Myf5, Ahr, Ep300, Myog, and Usf2”; the “genes decreased significantly in myoblasts” value is on record as 611 genes; the “genes increased significantly in myoblasts” value amounted to 581 genes.

For `C[C@H]1[C@H]2N(C(=O)CN(C)N2C(=O)NCc2ccccc2)[C@@H](Cc2ccc(OP(=O)(O)O)cc2)C(=O)N1Cc1cccc2cccnc12` [OK-1], in series [3] (20 mg/kg/day twice a week plus treadmill exercise three times a week over 5 weeks), the “muscle mass (MRI), combined use of administration with exercise” value was “muscle mass significantly recovers synergistically”. For the same molecule, in series [3] (intraperitoneal 20 mg/kg/day twice a week over 8 weeks, then 5 further weeks), the “muscle mass (MRI)” value was “increases muscle mass in old mice”. The ALS result in series [4] is “ALS is improved”. In series [5], the metabolism entry is on record as “metabolism is improved”. Moreover, in series [6], the “change in body weight and behavioral abnormality during the dosing period” value was “a significant change in body weight and behavioral abnormality were not observed”. Also, the HDL-C concentration entry in series [7] (0.2 to 40 mg/kg twice a week for 12 weeks) is “A significant change was not observed”. Moreover, in series [7] (setting [9]), the LDH concentration entry was “reduces the LDH concentration” and the UA concentration entry is “increases the UA concentration at all concentrations”. Moreover, in series [7] (setting [10]), the ALT concentration entry is reported as “a decrease in the ALT concentration”, the TG concentration entry was “a decrease in TG concentration” and the UN concentration result was “an increase in UN concentration”. The “insulin secretion and insulin resistance” value in series [8] is “at least one of insulin secretion and insulin resistance is improved”.
